Test results as given in US9790209B2, “Kinase inhibitors” (Respivert Limited, priority 2012, dated 2017).
Read-outs that look alike come from different tables or passages of the source.

Tests used:
[1] = target: Syk (Homo sapiens (Human), UniProt P43405); assay: Syk enzyme inhibition, Z-LYTE FRET; type: biochemical
Method: (§1) The enzyme inhibitory activities of compounds disclosed herein are determined by FRET using synthetic peptides labelled with both donor and acceptor fluorophores (Z-LYTE, Invitrogen Ltd., Paisley, UK).
(§2) The inhibitory activities of compounds of the invention against c-Src and Syk enzymes (Invitrogen), are evaluated in a similar fashion to that described hereinabove. The relevant enzyme (3000 ng/mL or 2000 ng/mL respectively, 2.5 μL) is incubated with the test compound (either 4 μg/mL, 0.4 μg/mL, 0.04 μg/mL, or 0.004 μg/mL, 2.5 μL each) for 2 hr at RT. The FRET peptides (8 μM. 2.5 μL), and appropriate ATP solutions (2.5 μL, 800 μM for c-Src, and 60 μM ATP for Syk) are then added to the enzymes/compound mixtures and incubated for 1 hr. Development reagent (protease, 5 μL) is added for 1 hr prior to detection in a fluorescence microplate reader (Varioskan® Flash, ThermoFisher Scientific).
(§3) In all cases, the site-specific protease cleaves non-phosphorylated peptide only and eliminates the FRET signal. Phosphorylation levels of each reaction are calculated using the ratio of coumarin emission (donor) over fluorescein emission (acceptor), for which high ratios indicate high phosphorylation and low ratios indicate low phosphorylation levels. The percentage inhibition of each reaction is calculated relative to non-inhibited control and the 50% inhibitory concentration (IC50 value) is then calculated from the concentration-response curve.

[2] = target: GSK3α (Homo sapiens (Human), UniProt P49840); assay: GSK 3α enzyme inhibition (Method 2), Z-LYTE FRET; type: biochemical
Method: as §1
The inhibitory activities of compounds of the invention against the GSK 3α enzyme isoform (Invitrogen), are evaluated by determining the level of activation/phosphorylation of the target peptide. The GSK3-α protein (500 ng/mL, 2.5 μL) is mixed with the test compound (2.5 μL at either 4 μg/mL, 0.4 μg/mL, 0.04 μg/mL, or 0.004 μg/mL) for 2 hr at RT. The FRET peptide (8 μM, 2.5 μL), which is a phosphorylation target for GSK3α, and ATP (40 μM, 2.5 μL) are then added to the enzyme/compound mixture and the resulting mixture incubated for 1 hr. Development reagent (protease, 5 μL) is added for 1 hr prior to detection in a fluorescence microplate reader (Varioskan® Flash, ThermoFisher Scientific).
as §3
This method follows the same steps as Method 1 above, but utilises a shorter period of mixing of the test compound (105 minutes instead of 2 hours) with the GSK3-α protein.

[3] = target: p38 MAPKα (Homo sapiens (Human), UniProt Q16539); assay: p38 MAPKα enzyme inhibition (Method 2), Z-LYTE FRET; type: biochemical
Method: as §1
The inhibitory activities of test compounds against the p38 MAPKα isoform (MAPK14: Invitrogen), are evaluated indirectly by determining the level of activation/phosphorylation of the down-stream molecule, MAPKAP-K2. The p38 MAPKα protein (80 ng/mL, 2.5 μL) is mixed with the test compound (2.5 μL of either 4 μg/mL, 0.4 μg/mL, 0.04 μg/mL or 0.004 μg/mL) for 2 hr at RT. […] The mixture is incubated for 1 hr at RT. Development reagent (protease, […]) is added for 1 hr prior to detection in a fluorescence microplate reader (Varioskan® Flash, ThermoFisher Scientific).
This method follows the same steps as Method 1 above, but utilises a higher concentration of the p38 MAPKα protein (2.5 μL of 200 ng/mL protein instead of 2.5 μL of 80 ng/mL protein) for mixing with the test compound.
as §3

[4] = test system: d-U937 cells; assay: LPS-induced TNFα/IL-8 release in d-U937 cells; type: cell-based; conditions: Homo sapiens, dU937, LPS-stimulated d-U937 cells
Method: U937 cells, a human monocytic cell line, are differentiated to macrophage-type cells by incubation with phorbol myristate acetate (PMA; 100 ng/mL) for 48 to 72 hr. Cells are pre-incubated with final concentrations of test compound for 2 hr and are then stimulated with 0.1 μg/mL of LPS (from E. Coli: 0111:B4, Sigma) for 4 hr. The supernatant is collected for determination of TNFα and IL-8 concentrations by sandwich ELISA (Duo-set, R&D systems). The inhibition of TNFα production is calculated as a percentage of that achieved by 10 μg/mL of BIRB796 at each concentration of test compound by comparison against vehicle control. The relative 50% effective concentration (REC50) is determined from the resultant concentration-response curve. The inhibition of IL-8 production is calculated at each concentration of test compound by comparison with vehicle control. The 50% inhibitory concentration (IC50) is determined from the resultant concentration-response curve.

[5] = target: c-Src (Homo sapiens (Human), UniProt P12931); assay: c-Src enzyme inhibition, Z-LYTE FRET; type: biochemical
Method: as §1, §2, §3

[6] = test system: PBMCs; assay: LPS-induced TNFα/IL-8 release in PBMC cells; type: cell-based; conditions: Homo sapiens, LPS-stimulated PBMCs
Method: Peripheral blood mononuclear cells (PBMCs) from healthy subjects are separated from whole blood using a density gradient (Lymphoprep, Axis-Shield Healthcare). The PBMCs are seeded in 96 well plates and treated with compounds at the desired concentration for 2 hours before addition of 1 ng/mL LPS (Escherichia Coli 0111:B4 from Sigma Aldrich) for 24 hours under normal tissue culture conditions (37° C., 5% CO2). The supernatant is harvested for determination of IL-8 and TNFα concentrations by sandwich ELISA (Duo-set, R&D systems) and read on the fluorescence microplate reader (Varioskan® Flash, ThermoFisher Scientific). The concentration at 50% inhibition (IC50) of IL-8 and TNFα production is calculated from the dose response curve.

[7] = test system: PBMCs; assay: IL-2 and IFN gamma release in CD3/CD28 stimulated PBMC cells; type: cell-based; conditions: Homo sapiens
Method: PBMCs from healthy subjects are separated from whole blood using a density gradient (Lymphoprep, Axis-Shield Healthcare). Cells are added to a 96 well plate pre-coated with a mixture of CD3/CD38 monoclonal antibodies (0.3 μg/mL eBioscience and 3 μg/mL BD Pharmingen respectively). Compound at the desired concentration is then added to the wells and the plate left for 3 days under normal tissue culture conditions. Supernatants are harvested and IL-2 and IFN gamma release determined by Sandwich ELISA (Duo-set, R&D System). The IC50 is determined from the dose response curve.

[8] = test system: HT29 cells; assay: IL-1-induced IL-8 release in HT29 cells; type: cell-based; conditions: Homo sapiens, HT-29, IL-1β-stimulated HT29 cells, read-out: IC50 Values for Inhibition of Cytokine Release HT29 cells IL-8
Method: HT29 cells, a human colon adenocarcinoma cell line, are plated in a 96 well plate (24 hrs) and pre-treated with compounds at the desired concentration for 2 hours before addition of 5 ng/mL of IL-1β (Abcam) for 24 hours. Supernatants are harvested for IL-8 quantification by Sandwich ELISA (Duo-set, R&D System). The IC50 is determined from the dose response curve.

[9] = IL-8, read-out: IC50 Values for Inhibition of Cytokine Release dU937 cells IL-8
[10] = TNFα (method describes REC50 relative to BIRB796), read-out: IC50 Values for Inhibition of Cytokine Release dU937 cells TNFα
[11] = IL-8, read-out: IC50 Values for Inhibition of Cytokine Release PBMCs IL-8
[12] = IL-2, read-out: IC50 Values for Inhibition of Cytokine Release PBMCs IL-2
[13] = IFNγ, read-out: IC50 Values for Inhibition of Cytokine Release PBMCs IFNγ

GSK3α, sequence (P49840 whole entry): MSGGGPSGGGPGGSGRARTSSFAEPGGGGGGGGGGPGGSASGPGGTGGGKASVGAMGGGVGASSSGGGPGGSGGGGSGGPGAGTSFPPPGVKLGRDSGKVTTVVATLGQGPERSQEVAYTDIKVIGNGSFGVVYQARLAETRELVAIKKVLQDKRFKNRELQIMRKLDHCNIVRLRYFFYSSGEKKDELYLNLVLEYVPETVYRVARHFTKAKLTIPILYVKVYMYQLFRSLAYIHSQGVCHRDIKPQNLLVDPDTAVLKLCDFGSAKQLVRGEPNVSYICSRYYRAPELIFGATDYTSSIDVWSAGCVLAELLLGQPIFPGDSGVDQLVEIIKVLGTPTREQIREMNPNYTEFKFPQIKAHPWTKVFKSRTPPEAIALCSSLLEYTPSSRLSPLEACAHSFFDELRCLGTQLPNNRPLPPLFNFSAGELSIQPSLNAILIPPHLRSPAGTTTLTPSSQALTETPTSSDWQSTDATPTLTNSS
p38 MAPKα, sequence (Q16539 whole entry): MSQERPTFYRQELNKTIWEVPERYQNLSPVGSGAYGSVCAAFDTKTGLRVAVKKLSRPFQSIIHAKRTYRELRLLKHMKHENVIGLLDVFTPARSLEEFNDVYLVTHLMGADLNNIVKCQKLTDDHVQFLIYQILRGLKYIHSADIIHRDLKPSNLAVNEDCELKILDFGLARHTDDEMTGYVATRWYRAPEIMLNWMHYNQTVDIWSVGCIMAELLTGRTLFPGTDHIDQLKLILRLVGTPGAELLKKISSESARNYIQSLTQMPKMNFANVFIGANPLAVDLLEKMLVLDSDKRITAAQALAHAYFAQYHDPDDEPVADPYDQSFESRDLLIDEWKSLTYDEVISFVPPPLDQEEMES
c-Src, sequence (P12931 whole entry, looked up): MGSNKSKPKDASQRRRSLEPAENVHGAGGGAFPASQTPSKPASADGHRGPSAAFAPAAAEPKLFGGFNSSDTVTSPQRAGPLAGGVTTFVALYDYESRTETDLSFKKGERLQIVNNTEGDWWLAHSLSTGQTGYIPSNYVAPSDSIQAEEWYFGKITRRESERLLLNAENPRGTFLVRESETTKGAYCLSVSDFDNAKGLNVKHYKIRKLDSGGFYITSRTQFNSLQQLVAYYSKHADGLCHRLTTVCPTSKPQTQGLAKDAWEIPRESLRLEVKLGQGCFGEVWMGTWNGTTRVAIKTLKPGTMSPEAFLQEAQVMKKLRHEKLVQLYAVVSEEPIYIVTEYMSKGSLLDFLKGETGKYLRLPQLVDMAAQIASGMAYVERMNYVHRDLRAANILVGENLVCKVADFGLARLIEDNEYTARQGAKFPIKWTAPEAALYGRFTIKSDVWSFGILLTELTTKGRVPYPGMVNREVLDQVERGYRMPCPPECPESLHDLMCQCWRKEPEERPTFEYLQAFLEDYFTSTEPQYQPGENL

Row | SMILES | IC50 [1] | IC50 [2] | IC50 [3] | IC50 [4, 9] | IC50 [4, 10] | IC50 [5] | IC50 [8] | IC50 [6, 11] | IC50 ([6]; TNFα, assay (b), read-out: IC50 for inhibition of TNFα release in PBMCs) | IC50 [7, 12] | IC50 [7, 13]
1 | C#CC(C)(C)c1cc(NC(=O)Nc2ccc(Oc3ccnc(Nc4ccccc4)n3)c3ccccc23)n(-c2ccc(C)cc2)n1 [Example 1, 1-(3-(2-Methylbut-3-yn-2-yl)-1-(p-tolyl)-1H-pyrazol-5-yl)-3-(4-((2-(phenylamino)pyrimidin-4-yl)oxy)naphthalen-1-yl)urea] | > 1000 nM | > 10000 nM | 85 nM | 3.2 nM | 1.4 nM | 60 nM | – | 1.6 nM | 2.5 nM | – | –
2 | C#CC(C)(C)c1cc(NC(=O)Nc2ccc(Oc3ccnc(Nc4ccc5c(c4)NC(=O)C5)n3)c3ccccc23)n(-c2ccc(C)cc2)n1 [Example 3, 1-(3-(2-Methylbut-3-yn-2-yl)-1-(p-tolyl)-1H-pyrazol-5-yl)-3-(4-((2-((2-oxoindolin-6-yl)amino)pyrimidin-4-yl)oxy)naphthalen-1-yl)urea] | 113 nM | > 10000 nM | 87 nM | 4.4 nM | 2.8 nM | 203 nM | 6 nM | 2.1 nM | – | 0.7 nM | –

Second part, led by results:

Row | IC50 [1] | IC50 [2] | IC50 [3] | IC50 [4, 9] | IC50 [4, 10] | IC50 [5] | IC50 [8] | SMILES | IC50 [6, 11] | IC50 ([6]; TNFα, assay (b), read-out: IC50 for inhibition of TNFα release in PBMCs) | IC50 [7, 12] | IC50 [7, 13]
3 | 275 nM | 2310 nM | 214 nM | 1.2 nM | – | 74 nM | 3.7 nM | C#CC(C)(C)c1cc(NC(=O)Nc2ccc(Oc3ccnc(Nc4cc(C(=O)NCCN5CCOCC5)cc(C(F)(F)F)c4)n3)c3ccccc23)n(-c2ccc(C)cc2)n1 [Example 12, 3-((4-((4-(3-(3-(2-Methylbut-3-yn-2-yl)-1-(p-tolyl)-1H-pyrazol-5-yl)ureido)naphthalen-1-yl)oxy)pyrimidin-2-yl)amino)-N-(2-morpholinoethyl)-5-(trifluoromethyl)benzamide] | 2.1 nM | – | 171 nM | 2.6 nM
4 | 203 nM | 5440 nM | 273 nM | 1.8 nM | – | 37 nM | 3.6 nM | C#CC(C)(C)c1cc(NC(=O)Nc2ccc(Oc3ccnc(Nc4cc(OC(F)(F)F)cc(C(=O)NCCN5CCOCC5)c4)n3)c3ccccc23)n(-c2ccc(C)cc2)n1 [Example 14, 3-((4-((4-(3-(3-(2-Methylbut-3-yn-2-yl)-1-(p-tolyl)-1H-pyrazol-5-yl)ureido)naphthalen-1-yl)oxy)pyrimidin-2-yl)amino)-N-(2-morpholinoethyl)-5-(trifluoromethoxy)benzamide] | 1.4 nM | – | 170 nM | 2 nM
5 | 40 nM | 3590 nM | 67 nM | 1.3 nM | – | 16 nM | 2.5 nM | C#Cc1cc(Nc2nccc(Oc3ccc(NC(=O)Nc4cc(C(C)(C)C#C)nn4-c4ccc(C)cc4)c4ccccc34)n2)cc(C(=O)NCCN2CCOCC2)c1 [Example 15, 3-Ethynyl-5-((4-((4-(3-(3-(2-methylbut-3-yn-2-yl)-1-(p-tolyl)-1H-pyrazol-5-yl)ureido)naphthalen-1-yl)oxy)pyrimidin-2-yl)amino)-N-(2-morpholinoethyl)benzamide] | 0.8 nM | – | 69.3 nM | 2.4 nM
